Counter-ions that a name gives are not always drawn.
These compounds were tested against GCN2 (Homo sapiens, UniProt Q9P2K8) (assay: GCN2 enzymatic endpoint assay: phosphorylation of GFP-eIF2α measured by TR-FRET (Lanthascreen)). Conditions: GCN2 biochemical IC50; 4 nM GCN2, 2 μM ATP, 80 nM GFP-eIF2α, 90 min RT; read-out: GCN2 activity.
Chain of GCN2 (Q9P2K8 whole entry): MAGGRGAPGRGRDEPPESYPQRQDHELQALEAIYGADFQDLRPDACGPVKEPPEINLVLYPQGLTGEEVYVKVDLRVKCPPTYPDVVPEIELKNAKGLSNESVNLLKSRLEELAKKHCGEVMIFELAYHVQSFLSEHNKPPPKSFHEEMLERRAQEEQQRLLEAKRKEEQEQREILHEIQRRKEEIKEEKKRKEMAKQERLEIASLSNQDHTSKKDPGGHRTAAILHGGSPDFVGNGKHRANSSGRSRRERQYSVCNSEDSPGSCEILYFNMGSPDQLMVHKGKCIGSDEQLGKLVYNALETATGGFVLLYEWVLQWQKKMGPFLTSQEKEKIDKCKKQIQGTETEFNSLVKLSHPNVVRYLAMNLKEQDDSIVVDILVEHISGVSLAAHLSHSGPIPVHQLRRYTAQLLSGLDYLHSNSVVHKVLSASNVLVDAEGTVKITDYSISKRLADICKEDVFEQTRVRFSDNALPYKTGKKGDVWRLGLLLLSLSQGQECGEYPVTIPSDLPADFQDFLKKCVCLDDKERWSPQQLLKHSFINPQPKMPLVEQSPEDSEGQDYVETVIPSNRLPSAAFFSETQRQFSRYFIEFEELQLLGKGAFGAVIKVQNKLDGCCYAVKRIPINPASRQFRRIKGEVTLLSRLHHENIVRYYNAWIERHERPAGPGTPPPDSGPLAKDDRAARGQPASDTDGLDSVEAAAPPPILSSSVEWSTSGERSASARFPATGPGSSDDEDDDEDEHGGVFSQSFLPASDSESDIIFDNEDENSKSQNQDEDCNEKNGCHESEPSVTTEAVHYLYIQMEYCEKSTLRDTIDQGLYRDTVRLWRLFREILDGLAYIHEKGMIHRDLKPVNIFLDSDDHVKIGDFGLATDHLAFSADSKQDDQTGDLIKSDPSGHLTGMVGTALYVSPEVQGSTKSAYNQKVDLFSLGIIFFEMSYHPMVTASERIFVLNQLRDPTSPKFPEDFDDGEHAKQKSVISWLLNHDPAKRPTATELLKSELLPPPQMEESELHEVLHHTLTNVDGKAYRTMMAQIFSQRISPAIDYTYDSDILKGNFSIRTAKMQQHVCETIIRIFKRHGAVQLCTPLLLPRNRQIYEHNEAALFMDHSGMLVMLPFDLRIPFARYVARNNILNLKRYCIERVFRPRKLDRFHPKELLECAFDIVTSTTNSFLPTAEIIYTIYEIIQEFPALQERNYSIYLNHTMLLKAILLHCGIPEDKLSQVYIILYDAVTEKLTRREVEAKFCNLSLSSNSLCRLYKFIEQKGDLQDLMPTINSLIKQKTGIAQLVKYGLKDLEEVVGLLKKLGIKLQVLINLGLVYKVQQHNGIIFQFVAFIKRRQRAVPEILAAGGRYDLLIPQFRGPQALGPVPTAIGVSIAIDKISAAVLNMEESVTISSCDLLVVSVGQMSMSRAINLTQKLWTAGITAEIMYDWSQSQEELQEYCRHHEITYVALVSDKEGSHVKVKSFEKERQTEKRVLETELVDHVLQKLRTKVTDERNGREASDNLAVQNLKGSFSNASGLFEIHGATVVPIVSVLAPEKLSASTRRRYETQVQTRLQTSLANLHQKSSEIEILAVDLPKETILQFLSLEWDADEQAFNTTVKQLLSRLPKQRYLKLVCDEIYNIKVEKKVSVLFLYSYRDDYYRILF
Format: biochemical
How it was run: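 Kinase activity is measured as phosphorylation of GFP-labelled eIF2α (80 nM) with ATP at 2 μM. Incubation runs 90 minutes at room temperature before EDTA quench and terbium-antibody detection.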
`CNC(=O)[C@]1(C)CC[C@@H](Nc2ncc3c(Br)nn(-c4cc(C#N)cc(OCC5(F)CNC5)c4)c3n2)C1` [Example 36, (1R,3R)-3-((3-bromo-1-(3-cyano-5-((3-fluoroazetidin-3-yl)methoxy)phenyl)-1H-pyrazolo[3,4-d]pyrimidin-6-yl)amino)-N,1-dimethylcyclopentane-1-carboxamide; 2,2,2-trifluoroacetic acid] was tested, and the IC50 was < 25 nM. In the case of `CNC(=O)[C@]1(C)CC[C@@H](Nc2ncc3c(Br)nn(-c4cccc(NC(=O)c5cnccn5)c4)c3n2)C1` [Example 54, N-(3-(3-bromo-6-(((1R,3R)-3-methyl-3-(methylcarbamoyl)cyclopentyl)amino)-1H-pyrazolo[3,4-d]pyrimidin-1-yl)phenyl)pyrazine-2-carboxamide], the IC50 is reported as 25 to 200 nM. In the case of `CNC(=O)[C@]1(C)CC[C@@H](Nc2ncc3c(Br)nn(-c4cc(CCO)c5ncccc5c4)c3n2)C1` [Example 29, (1R,3R)-3-((3-bromo-1-(8-(2-hydroxyethyl)quinolin-6-yl)-1H-pyrazolo[3,4-d]pyrimidin-6-yl)amino)-N,1-dimethylcyclopentane-1-carboxamide hydrochloride], the IC50 is reported as < 25 nM. With `CNC(=O)[C@@H]1CC[C@@H](Nc2ncc3c(Br)nn(-c4cc(F)c5ncccc5c4)c3n2)C1` [Example 8, (1R,3R)-3-((3-bromo-1-(8-fluoroquinolin-6-yl)-1H-pyrazolo[3,4-d]pyrimidin-6-yl)amino)-N-methylcyclopentane-1-carboxamide] the IC50 was 25 to 200 nM. Work on `CNC(=O)[C@]1(C)CC[C@@H](Nc2ncc3c(Br)nn(-c4ccc(-c5nnc(C)s5)c(CCN(C)C)c4)c3n2)C1` [Example 63, (1R,3R)-3-((3-bromo-1-(3-(2-(dimethylamino)ethyl)-4-(5-methyl-1,3,4-thiadiazol-2-yl)phenyl)-1H-pyrazolo[3,4-d]pyrimidin-6-yl)amino)-N,1-dimethylcyclopentane-1-carboxamide; 2,2,2-trifluoroacetic acid] yielded an IC50 of 25 to 200 nM.

Same assay, conditions: tested as described in Example 77; compound and/or hydrochloride, dihydrochloride or trifluoroacetic acid salt; read-out: IC 50 Activity
`CNC(=O)[C@]1(C)CC[C@@H](Nc2ncc3c(Br)nn(-c4ccc(-c5nnc(C(C)CC#N)o5)cc4)c3n2)C1` (stereo partly drawn) [(1R,3R)-3-[[3-bromo-1-[4-[5-(2-cyano-1-methyl-ethyl)-1,3,4-oxadiazol-2-yl]phenyl]pyrazolo[3,4-d]pyrimidin-6-yl]amino]-N,1-dimethyl-cyclopentanecarboxamide] was tested, and the IC50 was < 25 nM. `CNC(=O)[C@]1(C)CC[C@@H](Nc2ncc3c(Br)nn(-c4ccc(-c5nnc(C(C)(C)N)s5)c(F)c4)c3n2)C1` [(1R,3R)-3-[[1-[4-[5-(1-amino-1-methyl-ethyl)-1,3,4-thiadiazol-2-yl]-3-fluoro-phenyl]-3-bromo-pyrazolo[3,4-d]pyrimidin-6-yl]amino]-N,1-dimethyl-cyclopentanecarboxamide] was tested, and the IC50 was < 25 nM. In the case of `N#Cc1cc(-n2nc(Br)c3cnc(N[C@@H]4CC[C@@H](C(=O)N5CCNC(=O)C5)C4)nc32)cc2cccnc12` [6-(3-bromo-6-(((1R,3R)-3-(3-oxopiperazine-1-carbonyl)cyclopentyl)amino)-1H-pyrazolo [3,4-d]pyrimidin-1-yl)quinoline-8-carbonitrile], the IC50 is reported as < 25 nM. In the case of `CNC(=O)[C@]1(C)CC[C@@H](Nc2ncc3c(Br)nn(-c4cc(F)c5nc(C)cc(O)c5c4)c3n2)C1` [(1R,3R)-3-[[3-bromo-1-(8-fluoro-4-hydroxy-2-methyl-6-quinolyl)pyrazolo[3,4-d]pyrimidin-6-yl]amino]-N,1-dimethyl-cyclopentanecarboxamide], the IC50 is reported as 25 to 200 nM. `C[C@]1(C(=O)O)CC[C@@H](Nc2ncc3c(Br)nn(-c4cc(CCN)c5ncccc5c4)c3n2)C1` [(1S,3R)-3-[[1-[8-(2-aminoethyl)-6-quinolyl]-3-bromo-pyrazolo[3,4-d]pyrimidin-6-yl]amino]-1-methyl-cyclopentanecarboxylic acid] was tested, and the IC50 was 25 to 200 nM. With `CNC(=O)[C@@H]1CC[C@@H](Nc2ncc3c(I)nn(-c4ccc(-c5nnc(C)o5)cc4)c3n2)C1` [(1R,3R)-3-[[3-iodo-1-[4-(5-methyl-1,3,4-oxadiazol-2-yl)phenyl]pyrazolo[3,4-d]pyrimidin-6-yl]amino]-N-methyl-cyclopentanecarboxamide] the IC50 was 25 to 200 nM. With `N#Cc1cc(-n2nc(Br)c3cnc(N[C@@H]4CC[C@@H](C(=O)N[C@@H]5CNC[C@@H]5F)C4)nc32)cc2cccnc12` [(1R,3R)-3-((3-bromo-1-(8-cyanoquinolin-6-yl)-1H-pyrazolo[3,4-d]pyrimidin-6-yl)amino)-N-((3R,4S)-4-fluoropyrrolidin-3-yl)cyclo-pentane-1-carboxamide] the IC50 was < 25 nM. `CNC(=O)[C@]1(C)CC[C@@H](Nc2ncc3c(Br)nn(-c4ccc5c(=O)n(C)c(=O)n(C)c5c4)c3n2)C1` [(1R,3R)-3-[[3-bromo-1-(1,3-dimethyl-2,4-dioxo-quinazolin-7-yl)pyrazolo [3,4-d]pyrimidin-6-yl]amino]-N,1-dimethyl-cyclopentanecarboxamide] was tested, and the IC50 was < 25 nM. `O=C(CO)N1CCN(C(=O)[C@@H]2CC[C@@H](Nc3ncc4c(Br)nn(-c5ccc6ncccc6c5)c4n3)C2)CC1` [1-(4-((1R,3R)-3-((3-bromo-1-(quinolin-6-yl)-1H-pyrazolo[3,4-d]pyrimidin-6-yl)amino)cyclopentane-1-carbonyl)piperazin-1-yl)-2-hydroxyethan-1-one] showed an IC50 of 25 to 200 nM. For `CNC(=O)[C@]1(C)CC[C@@H](Nc2ncc3c(Br)nn(-c4cc(Br)cc(CN)c4)c3n2)C1`, the IC50 was 25 to 200 nM. `CS(=O)(=O)CCNC(=O)C12CCC(Nc3ncc4c(Br)nn(-c5ccc6ncccc6c5)c4n3)(C1)C2` [4-((3-bromo-1-(quinolin-6-yl)-1H-pyrazolo [3,4-d]pyrimidin-6-yl)amino)-N-(2-(methyl-sulfonyl)ethyl)bicyclo[2.1.1]hexane-1-carboxamide] gave an IC50 of 200 to 500 nM. `CN1CCC2(CCN(C(=O)[C@@H]3CC[C@@H](Nc4ncc5c(Br)nn(-c6cc(F)c7ncccc7c6)c5n4)C3)C2)C1=O` (stereo partly drawn) [7-((1R,3R)-3-((3-bromo-1-(8-fluoroquinolin-6-yl)-1H-pyrazolo[3,4-d]pyrimidin-6-yl)amino)cyclopentane-1-carbonyl)-2-methyl-2,7-diazaspiro[4.4]nonan-1-one] showed an IC50 of 25 to 200 nM. With `CNC(=O)[C@]1(C)CC[C@@H](Nc2ncc3c(Br)nn(-c4cc(OCC#N)c5c(c4)OCC(=O)N5C)c3n2)C1` [(1R,3R)-3-[[3-bromo-1-[5-(cyano-methoxy)-4-methyl-3-oxo-1,4-benzoxazin-7-yl]pyrazolo[3,4-d]pyrimidin-6-yl]amino]-N,1-dimethyl-cyclopentane-carboxamide] the IC50 was < 25 nM. `CNC(=O)[C@]1(C)CC[C@@H](Nc2ncc3c(Br)nn(-c4ccc5nc(OC)ncc5c4)c3n2)C1` [(1R,3R)-3-[[3-bromo-1-(2-methoxy-quinazolin-6-yl)pyrazolo[3,4-d]pyrimidin-6-yl]amino]-N,1-dimethyl-cyclopentane-carboxamide; 2,2,2-trifluoroacetic acid] was tested, and the IC50 was < 25 nM. For `CNC(=O)[C@]1(C)CC[C@@H](Nc2ncc3c(Br)nn(-c4cc(Cl)cc([C@H](C)N(C)C)c4)c3n2)C1`, the IC50 was 25 to 200 nM. For `O=C([C@@H]1CC[C@@H](Nc2ncc3c(Br)nn(-c4ccc5ncccc5c4)c3n2)C1)N1CC2(CCNC2)C1` [((1R,3R)-3-((3-bromo-1-(quinolin-6-yl)-1H-pyrazolo[3,4-d]pyrimidin-6-yl)amino)cyclo-pentyl)(2,6-diazaspiro[3.4]octan-2-yl) methanone], the IC50 was 25 to 200 nM. Work on `N#Cc1cc(-n2nc(Br)c3cnc(N[C@@H]4CC[C@@H](C(=O)N=S5(=O)CCNCC5)C4)nc32)cc2cccnc12` yielded an IC50 of 25 to 200 nM. `C[C@@]1(CO)CC[C@@H](Nc2ncc3c(Br)nn(-c4cc(CCN)c5ncccc5c4)c3n2)C1` showed an IC50 of 25 to 200 nM. Work on `CNC(=O)[C@]1(C)CC[C@@H](Nc2ncc3c(Br)nn(-c4ccc5nc(NC(C)=O)ncc5c4)c3n2)C1` [(1R,3R)-3-[[1-(2-acetamidoquinazolin-6-yl)-3-bromo-pyrazolo[3,4-d]pyrimidin-6-yl]amino]-N,1-dimethyl-cyclopentane-carboxamide; 2,2,2-trifluoroacetic acid] yielded an IC50 of 25 to 200 nM. `CC(C)NC(=O)CN(C)C(=O)[C@@H]1CC[C@@H](Nc2ncc3c(Br)nn(-c4ccc5ncccc5c4)c3n2)C1` [(1R,3R)-3-((3-bromo-1-(quinolin-6-yl)-1H-pyrazolo[3,4-d]pyrimidin-6-yl)amino)-N-(2-(isopropylamino)-2-oxoethyl)-N-methylcyclo-pentane-1-carboxamide] gave an IC50 of 25 to 200 nM. In the case of `CNC(=O)[C@]1(CO)CC[C@@H](Nc2ncc3c(Br)nn(-c4ccc(-c5nnc(C)s5)c(CCC#N)c4)c3n2)C1` [(1R,3R)-3-[[3-bromo-1-[3-(2-cyanoethyl)-4-(5-methyl-1,3,4-thiadiazol-2-yl)phenyl]pyrazolo[3,4-d]pyrimidin-6-yl]amino]-1-(hydroxymethyl)-N-methyl-cyclopentane-carboxamide], the IC50 is reported as 25 to 200 nM. With `CC[C@@H](N)c1cc(Cl)cc(-n2nc(Br)c3cnc(N[C@@H]4CC[C@@](C)(C(=O)NC)C4)nc32)c1` the IC50 was < 25 nM. Compound `CNC(=O)[C@]1(C)CC[C@@H](Nc2ncc3c(Br)nn(-c4ccc5c(c4)CS(=O)(=O)C5)c3n2)C1` [(1R,3R)-3-[[3-bromo-1-(2,2-dioxo-1,3-dihydro-2-benzothiophen-5-yl)pyrazolo[3,4-d]pyrimidin-6-yl]amino]-N,1-dimethyl-cyclopentanecarboxamide] has an IC50 of 25 to 200 nM. Compound `CCN(CC)C(=O)C1(C)CC[C@@H](Nc2ncc3c(Br)nn(-c4cc(F)c5ncccc5c4)c3n2)C1` (stereo partly drawn) [(3R)-3-[[3-bromo-1-(8-fluoro-6-quinolyl)pyrazolo[3,4-d]pyrimidin-6-yl]amino]-N,N-diethyl-1-methyl-cyclopentanecarboxamide] has an IC50 of 25 to 200 nM. For `Cc1nnc(-c2ccc(-n3nc(Br)c4cnc(N[C@@H]5CC[C@@](C)(N(C)C)C5)nc43)cc2CCC#N)s1` [3-[5-[3-bromo-6-[[(1R,3R)-3-(dimethylamino)-3-methyl-cyclopentyl]amino]pyrazolo[3,4-d]pyrimidin-1-yl]-2-(5-methyl-1,3,4-thiadiazol-2-yl)phenyl]propanenitrile], the IC50 was 25 to 200 nM.
